Experimental data taken from PubChem BioAssay (NCI).
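1) Cells in 96-well plates. 2) Compound, 48 h, 5 concentrations. 3) Linear interpolation between surrounding doses. 4) Unreached endpoint = highest concentration. Definition used: TGI = concentration required for complete inhibition of growth.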

Experiments:
Assay in all cases: NCI anticancer screen, dose series, 48 h
MOLT-4 leukemia = test system: MOLT-4 leukemia
SF-539 CNS = test system: SF-539 CNS
OVCAR-5 ovarian = test system: OVCAR-5 ovarian
SNB-75 CNS = test system: SNB-75 CNS
UO-31 renal = test system: UO-31 renal
MDA-MB-435 = test system: MDA-MB-435
U251 CNS = test system: U251 CNS
RXF 393 renal = test system: RXF 393 renal
A549 NSCLC = test system: A549 NSCLC
LOX IMVI melanoma = test system: LOX IMVI melanoma
HCT-116 colon = test system: HCT-116 colon
MALME-3M melanoma = test system: MALME-3M melanoma
HCT-15 colon = test system: HCT-15 colon
SK-OV-3 ovarian = test system: SK-OV-3 ovarian
HOP-62 NSCLC = test system: HOP-62 NSCLC
UACC-257 melanoma = test system: UACC-257 melanoma
UACC-62 melanoma = test system: UACC-62 melanoma
OVCAR-3 ovarian = test system: OVCAR-3 ovarian
COLO 205 colon = test system: COLO 205 colon

| SMILES | TGI (MOLT-4 leukemia) [µM] | TGI (SF-539 CNS) [µM] | TGI (OVCAR-5 ovarian) [µM] | TGI (SNB-75 CNS) [µM] | TGI (UO-31 renal) [µM] | TGI (MDA-MB-435) [µM] | TGI (U251 CNS) [µM] | TGI (RXF 393 renal) [µM] | TGI (A549 NSCLC) [µM] | TGI (LOX IMVI melanoma) [µM] | TGI (HCT-116 colon) [µM] | TGI (MALME-3M melanoma) [µM] | TGI (HCT-15 colon) [µM] | TGI (SK-OV-3 ovarian) [µM] | TGI (HOP-62 NSCLC) [µM] | TGI (UACC-257 melanoma) [µM] | TGI (UACC-62 melanoma) [µM] | TGI (OVCAR-3 ovarian) [µM] | TGI (COLO 205 colon) [µM] |
| --- | --- | --- | --- | --- | --- | --- | --- | --- | --- | --- | --- | --- | --- | --- | --- | --- | --- | --- | --- |
| Cn1cc(S(=O)(=O)NC(=O)Nc2ccc(Cl)cc2)c(=O)c2ccc(Cl)cc21 | > 100 | > 100 | > 100 | > 100 | > 100 | > 100 | > 100 | > 100 | > 100 | > 100 | > 100 | > 100 | > 100 | > 100 | > 100 | > 100 | > 100 | > 100 |  |
| COc1cc(/C=C2/CCCc3ccccc3C2=O)cc(OC)c1OC | > 35 | > 64.7 | > 100 | > 49.9 | > 60.2 | > 70.6 | > 88.4 | > 100 | > 100 | > 77 | > 49.9 | 29.5 | > 100 | > 68.1 | > 58.9 | > 56.1 | > 67.4 | > 55.6 | > 60.8 |
| CC(=O)N(C(=O)CC(=O)NNCc1ccccc1Cl)c1ccc(Cl)cc1 | > 10 | > 10 | > 10 | > 10 | > 10 | > 10 | > 10 | > 10 | > 10 | > 10 | > 10 | > 10 | > 10 | > 10 | > 10 | > 10 | > 10 | > 10 | > 10 |
| NNC(=O)CC(=O)Nc1ccccc1Cl | > 100 | > 100 | > 100 | > 100 | > 100 | > 100 | > 100 | > 100 | > 100 | > 100 | > 100 | > 100 | > 100 | > 100 | > 100 | > 100 | > 100 | > 100 | > 100 |
| NCc1ccc(O)c(O)c1O | 64.9 | > 62.5 | 40.5 | > 100 | > 100 | 32.7 | 52.6 | > 81.1 | 63.2 | 32 | 30.5 | > 100 | 47.7 | > 100 | > 73.9 | > 75.6 | > 67.3 | 47 | 35.5 |
| CCCCC1CCCCCCc2[nH]c(/C=C3\N=C(c4ccc[nH]4)C=C3OC)cc21 (stereo unspecified) | 0.0443 | 1.13 | 2 | 0.638 | 0.071 | 0.403 | 0.49 | 1.11 | 0.0354 |  | 0.0531 | 0.689 | 1.9 | 7.37 | 0.94 | 2.73 | < 0.0177 | < 0.0224 | 1.39 |
| COc1c(C(=O)/C(=N/Nc2cccc(Cl)c2)C(C)=O)c(O)c(OC)c2occc12 | > 100 | > 100 | > 100 | > 100 | > 100 | > 100 | > 100 | > 100 | > 100 | > 100 | > 100 | > 100 | > 100 | > 100 | > 100 | > 100 | > 100 | > 100 | > 100 |
| C=CC(C)CCC(C/C=C(\C)CCCC(C)C)C(=C)CCCC(C)C (stereo unspecified) | > 100 | > 100 | > 100 | > 100 | > 100 | > 100 | > 100 | > 100 | > 100 | > 100 | > 100 | > 100 | > 100 | > 100 | > 100 | > 100 | > 100 | > 100 | > 100 |
| OC1C2CCC3C2CC(C(O)(c2ccccc2)c2ccccc2)C13 (stereo unspecified) | 74 | > 100 | > 100 | 43.9 | > 100 | > 100 | > 100 | 96.6 | > 100 | > 100 | > 100 | 71.3 | > 100 | > 100 | > 100 | 95.6 | > 100 | 87.3 | 37.2 |
| Nc1nc(Cl)cc(NCC2(CO)CC(CCCc3ccccc3)C2)n1 (stereo unspecified) | > 100 | > 100 | > 100 | 98.2 | > 100 | > 100 | > 100 | > 78.2 | > 100 | > 100 | > 100 | > 100 | > 100 | > 100 | > 100 | > 93.7 | > 100 | > 100 | > 100 |
| O=[N+]([O-])c1ccc(CSc2c3ccccc3nc3ccccc23)cc1 | > 21.2 | 9.43 | 32.5 | 33.1 | 17 | 14.3 | 20.9 | 18.5 | 51.4 | 10.6 | 7.14 | 6.04 | 27.5 | 41.4 | 35.7 | 10.5 | 29.3 | 14.4 | 16.9 |
| c1cc2c(cc1NC1=NCCO1)CCCC2 | 9.67 | 6.25 | 39.7 | 35.3 | 51.8 | 4.1 | 24.8 | 14.2 | 39.9 | 11.1 | 16 | 21.9 | 22.4 | 27.1 | 10.9 | > 28.1 | 16.5 | 16.8 | 3.8 |
| c1ccc(C2(c3ccccc3)S/C(=C3/SC(c4ccccc4)(c4ccccc4)c4ccccc43)c3ccccc32)cc1 | > 100 | > 100 | > 100 | > 100 | > 100 | > 100 | > 100 | > 100 | > 100 | > 100 | > 100 | > 100 | > 100 | > 100 | > 100 | > 100 | > 100 | > 100 | > 100 |
| CCOC(=O)CC[C@H](NC(=O)c1ccc(CNc2nc3cc(C(F)(F)F)ccc3nc2C(=O)OCC)cc1)C(=O)OCC | > 100 | 17.3 | > 86 | 41.3 | 70.3 | > 100 | 18.5 | > 100 | > 100 | > 100 | > 100 | 50.3 | > 100 | > 100 | > 46 | > 100 | 43 | > 53.2 | > 100 |
| O=C1C(=Cc2cccc(Cl)c2)N=C(c2ccccc2)N1n1c(-c2ccccc2)nc2ccccc2c1=O | > 100 | > 100 | > 100 | > 100 | > 100 | > 100 | > 100 | > 100 | > 100 | > 100 | > 100 | > 100 | > 100 | > 100 | 99.8 | > 100 | 96.2 | > 100 | > 100 |
| Nc1c(C(=O)c2ccc(Cl)cc2)[nH]c(Nc2ccc(Cl)cc2)c1C(=S)Nc1ccccc1 | 42.6 | 18.4 | 27.3 | 6.6 | 15.1 | 20 | 9.73 | 7.45 | 13.9 | 16.6 | 13.4 | 36.1 | 16.9 | 19.3 | 20.5 | 31.8 | 27.1 | 12.9 | 16.5 |
| CC(=O)NC1C(O)C(O)C(CO)OC1n1nc(SCc2ccccc2)c(=O)[nH]c1=O (stereo unspecified) | > 100 | > 100 | > 100 | > 100 | > 100 | > 100 | > 100 | > 100 | > 100 | > 100 | > 100 | > 100 | > 100 | > 100 | > 100 | > 100 | > 100 | > 100 | > 100 |
| CC(=O)O[C@H]1C[C@H]2[C@@H]([C@H](OC(C)=O)C[C@@H]3CC4(CC[C@@]32C)OOC2(CCCCC2)OO4)[C@@H]2CC[C@H]([C@H](C)CCC(N)=O)[C@@]12C | 2.9 | 10.7 | 6.65 | 4.89 | 0.193 | 3.27 | 3.15 | 10.2 | 2.93 |  | 11.2 | 6.82 | 5.31 | 25.5 | 2.11 | 19.9 | 6.31 | 3.17 | 3.68 |
| COc1c(N2CCCCC2)c2c(=O)c3ccccc3oc2c2cc(C)oc12 | > 100 | > 100 | > 100 | 42.9 | 54 | > 100 | > 100 | 70 | > 100 | 86.5 | 22.6 | 81 | > 100 | > 100 | > 100 | > 100 | 68.3 | > 100 | 18.3 |
| O=C1CC2(CCN(CC3COc4ccccc4O3)CC2)C(=O)N1N1CCCCCC1 (stereo unspecified) | 63.6 | > 100 | > 100 | > 100 | > 100 | > 100 | > 100 | > 100 | > 100 | > 100 | > 100 | > 100 | > 100 | > 100 | > 100 | > 100 | > 100 | > 100 | > 100 |
| N=C1/C(=C/c2ccco2)C(=O)N=C2SC=NN12 | > 100 | > 100 | > 100 | > 100 | > 100 | > 100 | > 100 | > 100 | > 100 | > 100 | > 100 | > 100 | > 100 | > 100 | > 100 | > 100 | > 100 | > 100 | > 100 |
| Clc1ccc(C2ON=C(c3ccccc3)N2C23CC4CC(CC(C4)C2)C3)cc1Cl (stereo unspecified) | > 10 | > 10 | > 10 | > 10 | > 10 | > 10 | > 10 | > 10 | > 10 | > 10 | > 10 | > 10 | > 10 | > 10 | > 10 | > 10 | > 10 | > 10 | > 10 |
| Cc1cc2nn(C3CCCCO3)nc2cc1C (stereo unspecified) | > 100 | > 100 | > 100 | > 100 | > 100 | > 100 | > 100 | > 100 | > 100 |  | > 100 | > 100 | > 100 | > 100 | > 100 | > 100 | > 100 | > 100 | > 100 |
| CCOc1cc(/C=N\O)cc(/C=N/O)c1O | 99 | 61.1 | > 100 | 57.6 |  | > 100 | 84.3 | 30.5 | > 100 | 71.9 | > 100 | > 100 | 92.6 | > 100 | > 100 | > 100 | > 100 | > 100 | 50.1 |
